Patent US20160022636A1, “PHYSIOLOGICAL LIGANDS FOR GPR139” (JANSSEN PHARMACEUTICA NV, priority 2013, published 2016)
Several values for one entry are separate records, joined by “and”; a condition that tells them apart may be missing. Equal entries are not always repeated. Where two headings read alike, the source gives them in different places.

What was measured:
mouse GPR139 = biological target: T1, mouse GPR139 (Mus musculus, UniProt Q80UC8); assay: GTPγS binding dose response, COS7 membranes co-transfected with mouse GPR139 and GO2Q; assay type: biochemical; settings: mouse GPR139, FIG. 2 C and D
T1 construct: expressed in transfected cells; host or cells: COS7
T1 sequence (Q80UC8 1-345): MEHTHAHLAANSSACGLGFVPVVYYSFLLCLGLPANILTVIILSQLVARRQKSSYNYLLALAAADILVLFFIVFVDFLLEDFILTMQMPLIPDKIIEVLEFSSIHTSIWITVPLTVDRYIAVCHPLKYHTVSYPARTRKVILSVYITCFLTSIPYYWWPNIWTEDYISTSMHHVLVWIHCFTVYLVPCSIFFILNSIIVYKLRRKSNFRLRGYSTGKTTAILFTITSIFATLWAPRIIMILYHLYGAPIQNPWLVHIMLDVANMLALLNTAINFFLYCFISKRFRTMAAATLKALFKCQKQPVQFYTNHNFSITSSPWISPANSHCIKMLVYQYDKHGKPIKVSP
Source text: (§1) FIG. 2: Tryptophan, phenylalanine, and their derivatives activate GPR139. Human (A and B) or mouse (C and D) GPR139 were co-transfected with chimeric G-protein GO2Q into COS7 cells. Cell membranes from transfected cells were used in GTPγS binding studies using various ligands at different concentrations to stimulate GPR139. Membranes from COS7 cells transfected by GO2Q were used as the controls (E and F).

GPR139 [1] = biological target: T2, GPR139 (Homo sapiens, UniProt Q6DWJ6); assay: GTPγS binding dose response, COS7 membranes co-transfected with human GPR139 and GO2Q; assay type: biochemical; parameters: expressed in transfected cells; host or cells: COS7; settings: human GPR139, FIG. 2 A and B
T2 sequence (Q6DWJ6 1-353): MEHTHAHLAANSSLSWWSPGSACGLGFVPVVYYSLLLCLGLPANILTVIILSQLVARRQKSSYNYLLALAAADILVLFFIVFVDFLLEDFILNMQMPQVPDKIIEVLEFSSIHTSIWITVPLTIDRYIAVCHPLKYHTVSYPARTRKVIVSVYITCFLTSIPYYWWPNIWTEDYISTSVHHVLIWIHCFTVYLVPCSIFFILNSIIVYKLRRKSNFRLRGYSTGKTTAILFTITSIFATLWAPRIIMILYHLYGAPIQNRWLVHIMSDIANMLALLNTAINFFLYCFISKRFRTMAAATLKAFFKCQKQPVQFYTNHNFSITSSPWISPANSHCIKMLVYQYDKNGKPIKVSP
Source text: as §1

GPR139 [2] = biological target: T2, GPR139; assay: calcium mobilization assay (FLIPR), GPR139 transiently expressed in HEK293 cells; assay type: cell-based; parameters: expressed in transfected cells; host or cells: HEK293; settings: similar to GTPγS binding studies
Source text: For these experiments human GPR139 was transiently expressed in HEK293 cells and calcium mobilization was stimulated using L-Trp, L-Phe or their derivatives.

GO2Q alone = assay: GTPγS binding assay, control membranes from COS7 cells expressing GO2Q alone (Ct-GO2Q); assay type: biochemical
Source text: as §1, with “Human” for “FIG. 2: Tryptophan, phenylalanine, and their derivatives activate GPR139. Human”
(§2) In order identify the ligands for GPR139 two improvements in the detection assay were made to allow for the ligands to be detected. First, we chose to use a GTPγS binding assay instead of using live cultured cells. The GTPγS binding assay is a cell free system that uses the cell membrane of the cell(s) of interest rather than the live cell(s). One advantage of this assay is that potential ligands present in the cell culture media are washed away when the cell membrane is prepared. This reduces the basal level of signal and increase the chance of detecting receptor ligands when assessing compounds that activate the receptor. Second, a GO2Q chimeric G-protein was created to be co-expressed with GPR139 in order to increase the signal-to-noise ratio in the GTPγS binding assay. Historically, the Gi, Go coupled GPCRs offer much greater signal-to-noise ratio in GTPγS binding studies. For Gs and Gq coupled GPCRs, although ligand-stimulated specific signals can be detected in a GTPγS binding assay, the signal-to-noise ratios are often very small. To address this a chimeric GO2-Gq chimeric G-protein, GO2Q, with the N-terminus from Go2 protein and the C-terminus from Gq protein.
(§3) To test for compounds that activate GPR139, different amino acids and their derivatives (Table 2) were tested as ligands in the GTPγS binding assay using cell membranes from COS7 cells co-expressing GPR139 and GO2Q. Cell membrane from COS7 cells expressing GO2Q alone or co-expressing other GPCRs were also tested in GTPγS binding assay in parallel as controls. Each compound was tested in triplicate.

GPR139 [3] = biological target: T2, GPR139; assay: GTPγS binding assay, membranes from COS7 cells co-expressing GPR139 and GO2Q, single concentration screen; assay type: biochemical; parameters: expressed in transfected cells; host or cells: COS7; settings: for activation of GPR139 in GTPγS binding assay (in words): 1 mM; for Activation levels of GPR139 (GTPγS binding signal), GPR139-GO2Q: 1 mM final concentration, single wells of triplicate, COS7 membranes co-expressing GPR139 and GO2Q
Method: as §2, §3

[4] = 1 mM final concentration, single wells of triplicate, COS7 membranes with GO2Q alone (control panel)

SMILES | Activation levels (GTPγS binding signal), Ct-GO2Q (GO2Q alone; [4]) | Activation levels of GPR139 (GTPγS binding signal), GPR139-GO2Q (GPR139 [3]) | also measured
Cn1cc(C[C@H](N)C(=O)O)c2ccccc21 [1-methyl-L-Trp] | – | – | dose response activation of GPR139 (in words) (mouse GPR139): specifically activate GPR139 in a dose-responsive manner; dose response activation of GPR139 (in words) (GPR139 [1]): specifically activate GPR139 in a dose-responsive manner; potency in calcium mobilization compared with L-Trp and L-Phe (in words) (GPR139 [2]): higher potencies
NCCc1c[nH]c2ccccc12 [Tryptamine, tryptamine] | 2025 and 2048 and 2088 | 6757 and 7686 and 7742 | dose response activation of GPR139 (in words) (mouse GPR139): specifically activate GPR139 in a dose-responsive manner; dose response activation of GPR139 (in words) (GPR139 [1]): specifically activate GPR139 in a dose-responsive manner; activation of GPR139 in GTPγS binding assay (in words) (GPR139 [3]): activated GPR139
Cn1cc(C[C@@H](N)C(=O)O)c2ccccc21 [1-methyl-D-Trp] | – | – | dose response activation of GPR139 (in words) (mouse GPR139): specifically activate GPR139 in a dose-responsive manner; dose response activation of GPR139 (in words) (GPR139 [1]): specifically activate GPR139 in a dose-responsive manner; potency in calcium mobilization compared with L-Trp and L-Phe (in words) (GPR139 [2]): higher potencies
N[C@H](Cc1ccccc1)C(=O)O [D-Phe, D-phenylalanine] | – | – | dose response activation of GPR139 (in words) (mouse GPR139): specifically activate GPR139 in a dose-responsive manner; dose response activation of GPR139 (in words) (GPR139 [1]): specifically activate GPR139 in a dose-responsive manner
CC(N)Cc1ccccc1 (stereo not shown) [Amphetamine, amphetamine] | 2331 and 2132 and 2001 | 7242 and 6744 and 7263 | dose response activation of GPR139 (in words) (mouse GPR139): specifically activate GPR139 in a dose-responsive manner; dose response activation of GPR139 (in words) (GPR139 [1]): specifically activate GPR139 in a dose-responsive manner; activation of GPR139 in GTPγS binding assay (in words) (GPR139 [3]): activated GPR139
N=C(N)NCCC[C@H](N)C(=O)O [Arg] | – | 2806 and 2783 and 2528 | Activation levels (GTPγS binding signal), Ct-GO2Q (GO2Q alone): 2171 and 2131 and 2255
O=C(O)[C@@H]1CCCN1 [Pro] | 2256 and 2235 and 2329 | 2719 and 2657 and 2786 | –
N[C@@H](Cc1c[nH]cn1)C(=O)O [His] | 2308 and 2259 and 2197 | 2640 and 2499 | –
NC(=O)C[C@H](N)C(=O)O [Asn] | 2195 and 2142 and 2133 | 2806 and 2483 and 2547 | –
NCCc1c[nH]c2ccc(O)cc12 [Seretonin] | 2356 and 2154 and 2332 | 2839 and 2852 and 2920 | –
C[C@H](N)C(=O)O [Ala] | 1903 and 2049 and 2139 | 2363 and 2348 and 2439 | –
N[C@H](Cc1c[nH]c2ccccc12)C(=O)O [D-Trp, D-tryptophan] | – | – | dose response activation of GPR139 (in words) (mouse GPR139): specifically activate GPR139 in a dose-responsive manner; dose response activation of GPR139 (in words) (GPR139 [1]): specifically activate GPR139 in a dose-responsive manner
N[C@@H](CS)C(=O)O [Cys] | 1928 and 2132 and 2114 | 2168 and 2458 and 2336 | –
C[C@@H](O)[C@H](N)C(=O)O [Thr] | 2210 and 2213 and 2008 | 2547 and 2507 and 2558 | –
NCCc1ccccc1 [β-phenylethylamine] | – | – | dose response activation of GPR139 (in words) (mouse GPR139): specifically activate GPR139 in a dose-responsive manner; dose response activation of GPR139 (in words) (GPR139 [1]): specifically activate GPR139 in a dose-responsive manner; Activation levels (GTPγS binding signal), Ct-GO2Q (GO2Q alone; 1 mM final concentration, single wells of triplicate, COS7 membranes with GO2Q alone (control panel), listed as b-phenylethylamine): 2334 and 2065 and 2024; activation of GPR139 in GTPγS binding assay (in words) (GPR139 [3]): activated GPR139; Activation levels of GPR139 (GTPγS binding signal), GPR139-GO2Q (GPR139 [3]; listed as b-phenylethylamine): 6705 and 7099 and 6634
NCCCC[C@H](N)C(=O)O [Lys] | 2400 and 2138 and 2041 | 2433 and 2617 and 2589 | –
N[C@@H](CSSC[C@H](N)C(=O)O)C(=O)O [Cystine] | 2242 and 2149 and 2229 | 2501 and 2652 and 2258 | –
CC[C@H](C)[C@H](N)C(=O)O [Ile] | 2266 and 2222 and 2253 | 2760 and 2542 and 2903 | –
NCC(=O)O [Gly] | 1936 and 2133 and 2289 | 2560 and 2505 and 2414 | –
NCC(O)c1ccc(O)cc1 (stereo not shown) [Octopamine] | 2087 and 2140 and 2142 | 2554 and 2675 and 2831 | –
N[C@@H](Cc1ccc(O)cc1)C(=O)O [Tyr] | 2192 and 2191 and 2186 | 2752 and 2715 and 2921 | –
CC(C)[C@H](N)C(=O)O [Val] | 2072 and 2083 and 1977 | 2632 and 2689 and 2533 | –
N[C@@H](CC(=O)O)C(=O)O [Asp] | 2177 and 2137 and 2132 | 2758 and 2922 and 2925 | –
N[C@@H](CO)C(=O)O [Ser] | 1975 and 2036 and 2164 | 2605 and 2458 and 2545 | –
NCCc1ccc(O)cc1 [Tyramine] | 2132 and 2277 and 2369 | 2883 and 2932 and 2873 | –
